Patent US8580829B2 (Boehringer Ingelheim International GmbH, priority 2010, dated 2013)
Where two headings read alike, the source gives them in different places.

Columns and labels:
[1] = target: T1, recombinant human FLAP protein (Homo sapiens, UniProt P20292); test: FLAP binding assay (Scintillation Proximity Assay, displacement of [125I]L-691,831); settings: recombinant human FLAP membranes, [125I]L-691,831 probe; read-out: FLAP SPA IC50
T1 construct: made in house; host or cells: Sf9 insect cells (100,000 x g membrane fraction)
T1 sequence (P20292 1-161): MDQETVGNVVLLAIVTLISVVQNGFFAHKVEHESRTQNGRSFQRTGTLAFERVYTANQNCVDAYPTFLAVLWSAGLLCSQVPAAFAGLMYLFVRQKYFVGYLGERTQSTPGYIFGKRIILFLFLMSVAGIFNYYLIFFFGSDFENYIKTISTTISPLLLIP
Method in brief: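 Membranes came from Sf9 insect cells expressing recombinant human FLAP, collected as the 100,000×g pellet in Tris pH 7.5/MgCl2/EDTA buffer. 5 μg membrane protein was coupled to WGA SPA beads for 1 h.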

[2] = test system: synthesis of LTB4 in human whole blood; test: human whole blood LTB4 production inhibition assay; format: cell-based
Method in brief: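 LTB4 levels in plasma were measured by antibody-based HTRF after heparinized human whole blood, pretreated with compound (15 min, 37° C), was challenged with 20 μM calcimycin for 30 min at 37° C.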

[3] = Homo sapiens, heparinized human whole blood, calcimycin 20 μM, read-out: hWB LTB4 IC50

CO[C@H]1CCN(C(=O)Cn2cc(-c3nc(C4(c5ccc(-c6cnc(N)nc6)cc5)CCC4)no3)cn2)C1 [Example 259, 2-[4-(3-{1-[4-(2-Amino-pyrimidin-5-yl)-phenyl]-cyclobutyl}-[1,2,4]oxadiazol-5-yl)-pyrazol-1-yl]-1-((S)-3-methoxy-pyrrolidin-1-yl)-ethanone]
IC50 [1]: 16 nM
IC50 [2, 3]: 210 nM

Cn1cc(-c2nc(C3(c4ccc(-c5ccc(N)c(C#N)c5)cc4)CCC3)no2)cn1 [Example 260]
IC50 [1]: 76 nM
IC50 [2, 3]: 2000 nM

Cn1cc(-c2nc(C3(c4ccc(-c5cnc(N)c(C#N)c5)cc4)CCC3)no2)cn1 [Example 261, 2-Amino-5-(4-{1-[5-(1-methyl-1H-pyrazol-4-yl)-[1,2,4]oxadiazol-3-yl]-cyclobutyl}-phenyl)-nicotinonitrile]
IC50 [1]: 9.3 nM
IC50 [2, 3]: 240 nM

Cn1cc(-c2nc(C3(c4ccc(-c5cnc6[nH]ccc6n5)cc4)CCC3)no2)cn1 [Example 262, 2-(4-{1-[5-(1-Methyl-1H-pyrazol-4-yl)-[1,2,4]oxadiazol-3-yl]-cyclobutyl}-phenyl)-5H-pyrrolo[2,3-b]pyrazine]
IC50 [1]: 2.4 nM
IC50 [2, 3]: 27 nM

Nc1ncc(-c2ccc(C3(c4noc(-c5cn(C6COC6)cn5)n4)CCC3)cc2)cn1 [Example 263, 5-(4-{1-[5-(1-Oxetan-3-yl-1H-imidazol-4-yl)-[1,2,4]oxadiazol-3-yl]-cyclobutyl}-phenyl)-pyrimidin-2-ylamine]
IC50 [1]: 16 nM
IC50 [2, 3]: 190 nM

Nc1ncc(-c2ccc(C3(c4noc(-c5cncn5C5COC5)n4)CCC3)cc2)cn1 [Example 264, 5-(4-{1-[5-(3-Oxetan-3-yl-3H-imidazol-4-yl)-[1,2,4]oxadiazol-3-yl]-cyclobutyl}-phenyl)-pyrimidin-2-ylamine]
IC50 [1]: 8.3 nM
IC50 [2, 3]: 280 nM

Cn1cnc(-c2nc(C3(c4ccc(-c5cnc(N)cn5)cc4)CCC3)no2)c1 [Example 265]
IC50 [1]: 6.2 nM
IC50 [2, 3]: 55 nM

Nc1ncc(-c2ccc(C3(c4noc(-c5csc(N6CCNCC6)n5)n4)CCC3)cc2)cn1 [Example 266, 5-(4-{1-[5-(2-Piperazin-1-yl-thiazol-4-yl)-[1,2,4]oxadiazol-3-yl]-cyclobutyl}-phenyl)-pyrimidin-2-ylamine]
IC50 [1]: 6.5 nM
IC50 [2, 3]: 160 nM

CN(C)C(=O)Cn1cc(-c2nc(C3(c4ccc(-c5cnc(N)nc5)cc4)CC3)no2)cn1 [Example 268, 2-[4-(3-{1-[4-(2-Amino-pyrimidin-5-yl)-phenyl]-cyclopropyl}-[1,2,4]oxadiazol-5-yl)-pyrazol-1-yl]-N,N-dimethyl-acetamide]
IC50 [1]: 670 nM
IC50 [2, 3]: > 5000 nM

Nc1ncc(-c2ccc(C3(c4noc(-c5csc(C6CCNCC6)n5)n4)CCC3)cc2)cn1 [Example 269]
IC50 [1]: 5.6 nM
IC50 ([2]; heparinized human whole blood, calcimycin 20 μM, read-out: hWB LTB4 IC50): 320 nM

CN(C)CCN(C)c1cnc(-c2nc(C3(c4ccc(-c5cnc(N)nc5)cc4)CCC3)no2)cn1 [Example 271, N-[5-(3-{1-[4-(2-Amino-pyrimidin-5-yl)-phenyl]-cyclobutyl}-[1,2,4]oxadiazol-5-yl)-pyrazin-2-yl]-N,N′,N′-trimethyl-ethane-1,2-diamine]
IC50 [1]: 5.3 nM
IC50 [2, 3]: 44 nM

Cn1cc(-c2nc(C3(c4ccc(-c5cnc6c(c5)CCN6)cc4)CCC3)no2)cn1 [Example 272, 5-(4-{1-[5-(1-Methyl-1H-pyrazol-4-yl)-[1,2,4]oxadiazol-3-yl]-cyclobutyl}-phenyl)-2,3-dihydro-1H-pyrrolo[2,3-b]pyridine]
IC50 [1]: 3.8 nM
IC50 [2, 3]: 79 nM

Cn1cc(-c2nc(C3(c4ccc(-c5cnc6[nH]ccc6c5)cc4)CCC3)no2)cn1 [Example 273, 5-(4-{1-[5-(1-Methyl-1H-pyrazol-4-yl)-[1,2,4]oxadiazol-3-yl]-cyclobutyl}-phenyl)-1H-pyrrolo[2,3-b]pyridine]
IC50 [1]: 3.9 nM
IC50 [2, 3]: 79 nM

Cn1cc(-c2nc(C3(c4ccc(-c5cnc(N)c(CO)c5)cc4)CCC3)no2)cn1 [Example 274, [2-Amino-5-(4-{1-[5-(1-methyl-1H-pyrazol-4-yl)-[1,2,4]oxadiazol-3-yl]-cyclobutyl}-phenyl)-pyridin-3-yl]-methanol]
IC50 [1]: 8.8 nM
IC50 [2, 3]: 220 nM

CN(C)C(=O)Cn1cc(-c2nc(C3(c4ccc(-c5cnc6[nH]ccc6n5)cc4)CCC3)no2)cn1 [Example 275, N,N-Dimethyl-2-[4-(3-{1-[4-(5H-pyrrolo[2,3-b]pyrazin-2-yl)-phenyl]-cyclobutyl}-[1,2,4]oxadiazol-5-yl)-pyrazol-1-yl]-acetamide]
IC50 [1]: 2.8 nM
IC50 [2, 3]: 140 nM

CNc1ncc(-c2ccc(C3(c4noc(-c5cnn(CC(=O)N(C)C)c5)n4)CCC3)cc2)cn1 [Example 276, N,N-Dimethyl-2-[4-(3-{1-[4-(2-methylamino-pyrimidin-5-yl)-phenyl]-cyclobutyl}-[1,2,4]oxadiazol-5-yl)-pyrazol-1-yl]-acetamide]
IC50 [1]: 7 nM
IC50 [2, 3]: 110 nM

Nc1ncc(-c2ccc(C3(c4noc(Cn5ccnc5)n4)CCC3)cc2)cn1 [Example 277, 5-{4-[1-(5-Imidazol-1-ylmethyl-[1,2,4]oxadiazol-3-yl)-cyclobutyl]-phenyl}-pyrimidin-2-ylamine]
IC50 [1]: 260 nM
IC50 [2, 3]: 2800 nM

CC(C)(O)Cc1nc(C2(c3ccc(-c4cnc(N)nc4)cc3)CCC2)no1 [Example 278, 1-(3-{1-[4-(2-Amino-pyrimidin-5-yl)-phenyl]-cyclobutyl}-[1,2,4]oxadiazol-5-yl)-2-methyl-propan-2-ol]
IC50 [1]: 78 nM
IC50 [2, 3]: 1700 nM

Cc1n[nH]c(C)c1Cc1nc(C2(c3ccc(-c4cnc(N)nc4)cc3)CCC2)no1 [Example 279]
IC50 [1]: 29 nM
IC50 [2, 3]: > 5000 nM

CN1CCCCC1c1nc(C2(c3ccc(-c4cnc(N)nc4)cc3)CCC2)no1 (centres unmarked) [Example 280, 5-(4-{1-[5-(1-Methyl-piperidin-2-yl)-[1,2,4]oxadiazol-3-yl]-cyclobutyl}-phenyl)-pyrimidin-2-ylamine]
IC50 [1]: 17 nM
IC50 [2, 3]: 1400 nM

Nc1ncc(-c2ccc(C3(c4noc([C@H]5CCCCN5)n4)CCC3)cc2)cn1 [Example 282, 5-{4-[1-((R)-5-Piperidin-2-yl-[1,2,4]oxadiazol-3-yl)-cyclobutyl]-phenyl}-pyrimidin-2-ylamine]
IC50 [1]: 26 nM
IC50 [2, 3]: 1100 nM

Nc1ncc(-c2ccc(C3(c4noc(C5CCCCN5)n4)CCC3)cc2)cn1 (centres unmarked) [Example 283, 5-{4-[1-(5-Piperidin-2-yl-[1,2,4]oxadiazol-3-yl)-cyclobutyl]-phenyl}-pyrimidin-2-ylamine]
IC50 [1]: 60 nM
IC50 [2, 3]: 1400 nM

Nc1ncc(-c2ccc(C3(c4noc(N5CCC(O)CC5)n4)CCC3)cc2)cn1 [Example 284, 1-(3-{1-[4-(2-Amino-pyrimidin-5-yl)-phenyl]-cyclobutyl}-[1,2,4]oxadiazol-5-yl)-piperidin-4-ol]
IC50 [1]: 18 nM
IC50 [2, 3]: 120 nM

Nc1ncc(-c2ccc(C3(c4noc(N5CCCC(CO)C5)n4)CCC3)cc2)cn1 (centres unmarked) [Example 286, [1-(3-{1-[4-(2-Amino-pyrimidin-5-yl)-phenyl]-cyclobutyl}-[1,2,4]oxadiazol-5-yl)-piperidin-3-yl]-methanol]
IC50 [1]: 14 nM
IC50 [2, 3]: 200 nM

Nc1ncc(-c2ccc(C3(c4noc(N5CC[C@H](O)C5)n4)CCC3)cc2)cn1 [Example 287, (S)-1-(3-{1-[4-(2-Amino-pyrimidin-5-yl)-phenyl]-cyclobutyl}-[1,2,4]oxadiazol-5-yl)-pyrrolidin-3-ol]
IC50 [1]: 36 nM
IC50 [2, 3]: 200 nM

Nc1ncc(-c2ccc(C3(c4noc(N5CCC[C@H]5CO)n4)CCC3)cc2)cn1 [Example 288, [(S)-1-(3-{1-[4-(2-Amino-pyrimidin-5-yl)-phenyl]-cyclobutyl}-[1,2,4]oxadiazol-5-yl)-pyrrolidin-2-yl]-methanol]
IC50 [1]: 26 nM
IC50 [2, 3]: 310 nM

Nc1ncc(-c2ccc(C3(c4noc(N5CCC[C@@H]5CO)n4)CCC3)cc2)cn1 [Example 289, [(R)-1-(3-{1-[4-(2-Amino-pyrimidin-5-yl)-phenyl]-cyclobutyl}-[1,2,4]oxadiazol-5-yl)-pyrrolidin-2-yl]-methanol]
IC50 [1]: 31 nM
IC50 [2, 3]: 500 nM

Nc1ncc(-c2ccc(C3(c4noc(N5CC[C@@H](O)C5)n4)CCC3)cc2)cn1 [Example 290, (R)-1-(3-{1-[4-(2-Amino-pyrimidin-5-yl)-phenyl]-cyclobutyl}-[1,2,4]oxadiazol-5-yl)-pyrrolidin-3-ol]
IC50 [1]: 35 nM
IC50 [2, 3]: 230 nM

N#CC1CCN(c2nc(C3(c4ccc(-c5cnc(N)nc5)cc4)CCC3)no2)CC1 [Example 291, 1-(3-{1-[4-(2-Amino-pyrimidin-5-yl)-phenyl]-cyclobutyl}-[1,2,4]oxadiazol-5-yl)-piperidine-4-carbonitrile]
IC50 [1]: 19 nM
IC50 [2, 3]: 210 nM

CN(CC1CCOCC1)c1nc(C2(c3ccc(-c4cnc(N)nc4)cc3)CCC2)no1 [Example 292, 5-[4-(1-{5-[Methyl-(tetrahydro-pyran-4-ylmethyl)-amino]-[1,2,4]oxadiazol-3-yl}-cyclobutyl)-phenyl]-pyrimidin-2-ylamine]
IC50 [1]: 22 nM
IC50 [2, 3]: 330 nM

CN1CCC(N(C)c2nc(C3(c4ccc(-c5cnc(N)nc5)cc4)CCC3)no2)CC1 [Example 293, 5-[4-(1-{5-[Methyl-(1-methyl-piperidin-4-yl)-amino]-[1,2,4]oxadiazol-3-yl}-cyclobutyl)-phenyl]-pyrimidin-2-ylamine]
IC50 [1]: 150 nM
IC50 ([2]; Homo sapiens, read-out: hWB LTB4 IC50 (nM)): 750 nM
